Measurements taken from patent US8476433B2, “Agent exhibiting the properties of a cognitive function promoter (embodiments)” (Unikorm, priority 2010, dated 2013).

Tests used:
[1] = system: learning and memory of mice, scopolamine-induced amnesia; test: Conditioned passive avoidance response (CPAR), step down method, in model of amnesia induced by scopolamine and undertraining; assay type: in vivo; conditions: for Number of animals with CPAR (%): male mice; for effect on learning and memory during scopolamine-induced amnesia: mice, i/p before or immediately after training, tested after 2 hours and 24 hours
Source text: In order to study the activity of the synthesized compounds in vivo one of the most used methodologies of examination and assessment of activation of cognitive functions was used—improvement or easier development of conditioned passive avoidance response (CPAR) in animals. From the time of study of cognitive properties of nootropil and up to the present time, conditioned passive avoidance response (CPAR) is used more often than other behavioral procedures for studying and screening of drugs affecting the processes of learning and memory in rodents. CPAR is used for studying the action of drugs on learning (if the tested drug is administered before a training session), on saving or retention in memory (if the drug is administered after the training) and on memory retrieval (administering drugs before memory testing). This method is also used to study and test substances in models of disorders of learning and memory, caused by experimental brain dysfunction (GABA, cholinergic, induced by cholinergic toxin AF64A), alcohol-benzodiazepine induced, electrocution induced, hypoxia induced and age-related amnesias, inhibition of protein synthesis, etc..
Comparative study of the effects of compounds 1 and 2 on learning and memory of mice in tests of conditioned passive avoidance response (CPAR) in model of amnesia, induced by the administration of scopolamine—a blocker of central cholinergic receptors.
Studies were performed using 470 male mice, body mass 20-22 g, using 20 animals for one dose. CPAR conditioning of mice was performed using step down method, in a cell with electrode floor and avoidance area. Parameters of electric stimulation for animals leaving the safety area were 50 V during 3-5 sec. The criterion of learning and memory was the staying of the animal in the area during 1 minute when testing 2 hours after training and 24 hours after training.
Learning deficit was induced by the administration of scopolamine (1.0 mg/kg, intraperitoneal) 15 minutes before the training and by reduction in the number of animal training sessions to 2 instead of 5 (undertraining).
The duration of the mnemotropic action of the compounds in conditions of learning deficit was assessed by the number of animals in a group (in percents), staying in safety zone (with immobilization).
To assess their action of different phases of memory development (fixation, consolidation and reproduction) the tested compounds were administered before the training (before scopolamine) and immediately after the training. The tested compounds were administered intraperitoneally using 2 schedules: […] and, correspondingly, 5 minutes before scopolamine, second—compounds in the same doses right after the training. Control was parallel in each series of experiments: one control group received saline solution instead of the tested compounds and scopolamine, second control group—scopolamine, using the same schedule and doses.
Statistical analysis was conducted with significance of difference from negative control at p<0.05.

Acute toxicity i/p = conditions: for Therapeutic index LD50/Min. ED: LD50 i/p / minimum effective dose in CPAR; for LD50: in vivo, intraperitoneal
[2] = dose 0.01 mg/kg i/p, scopolamine 1.0 mg/kg i/p amnesia
[3] = dose 0.1 mg/kg i/p, scopolamine 1.0 mg/kg i/p amnesia
[4] = dose 1.0 mg/kg i/p, scopolamine 1.0 mg/kg i/p amnesia
[5] = dose 10.0 mg/kg i/p, scopolamine 1.0 mg/kg i/p amnesia

SMILES	Number of animals with CPAR (%) [1, 2] [%]	Number of animals with CPAR (%) [1, 3] [%]	Number of animals with CPAR (%) [1, 4] [%]	Number of animals with CPAR (%) [1, 5] [%]	effect on learning and memory during scopolamine-induced amnesia [1]	Therapeutic index LD50/Min. ED (Acute toxicity i/p)	LD50 (Acute toxicity i/p) [mg/kg]	learning ability (animals staying in safety area) after scopolamine ([1]; scopolamine 1.0 mg/kg i/p 15 minutes before training plus undertraining, average, controls about 80%) [%]	Number of animals with CPAR (%) ([1]; scopolamine alone 1.0 mg/kg i/p (amnesia control group))
CN1C(=O)C(=CNc2ccncc2)C(=O)N(C)C1=O [Compound 1, 1,3-dimethyl-5-[(4-pyridylamino)methylene]barbituric acid]	90.0	80.0	60.0	50.0	improved learning and memory	1530	15.3 ± 2.6		
Nc1cc[n+](-c2nccc3c2cc([N+](=O)[O-])c(=O)n3-c2ccccc2)cc1 [Compound 2, 4-amino-1-(3-nitro-2-oxo-1-pheny-1,2-dihydro-1,6-naphthyridin-5-yl)pyridinium chloride]	60	80	70	60	improved learning and memory	10770	108 ± 14.1		
CN1[C@@H]2C[C@@H](OC(=O)[C@H](CO)c3ccccc3)C[C@H]1[C@@H]1O[C@@H]12 [Scopolamine, scopolamine, reference compound]								28	35
